Experimental data as given in ChEMBL document CHEMBL1158334, “Two new chymotrypsin inhibitors isolated from the Cyanobacterium Microcystis aeruginosa NIES-88” (J Nat Prod, 2005).

Experiments:
[1] = Inhibition of chymotrypsin
[2] = Inhibition of trypsin

IC50 [1] [µM] | IC50 [2] [µM] | Structure (SMILES)
> 100 | > 100 | CCCC(=O)N[C@@H](Cc1ccc(O)cc1)C(=O)N[C@@H](CCC(=O)N[C@@H]1C(=O)N[C@@H](CCC(=O)O)C(=O)N[C@H]2CC[C@@H](O)N(C2=O)[C@@H](C(C)C)C(=O)N(C)[C@@H](Cc2ccccc2)C(=O)N[C@@H]([C@@H](C)CC)C(=O)O[C@@H]1C)C(=O)O [MICROPEPTIN 88 B]
4.6 | > 100 | CCCC(=O)N[C@@H](Cc1ccc(O)cc1)C(=O)N[C@@H](CCC(=O)N[C@@H]1C(=O)N[C@@H](Cc2ccc(O)cc2)C(=O)N[C@H]2CC[C@@H](O)N(C2=O)[C@@H](C(C)C)C(=O)N(C)[C@@H](Cc2ccccc2)C(=O)N[C@@H]([C@@H](C)CC)C(=O)O[C@@H]1C)C(=O)O [MICROPEPTIN 88 C]
9 | > 100 | CCCC(=O)N[C@@H](Cc1ccc(O)cc1)C(=O)N[C@@H](CCC(=O)N[C@@H]1C(=O)N[C@@H](C[C@H]2C=C[C@H](O)CC2)C(=O)N[C@H]2CC[C@@H](O)N(C2=O)[C@@H](C(C)C)C(=O)N(C)[C@@H](Cc2ccccc2)C(=O)N[C@@H]([C@@H](C)CC)C(=O)O[C@@H]1C)C(=O)O [MICROPEPTIN 88 D]
5 | > 100 | CCCC(=O)N[C@@H](Cc1ccc(O)cc1)C(=O)N[C@@H](CCC(=O)N[C@@H]1C(=O)N[C@@H](CC(C)C)C(=O)N[C@H]2CC[C@@H](O)N(C2=O)[C@@H](C(C)C)C(=O)N(C)[C@@H](Cc2ccccc2)C(=O)N[C@@H]([C@@H](C)CC)C(=O)O[C@@H]1C)C(=O)O [MICROPEPTIN 88 E]
3.4 | > 100 | CCCC(=O)N[C@@H](Cc1ccc(O)cc1)C(=O)N[C@@H](CCC(=O)N[C@@H]1C(=O)N[C@@H](Cc2ccc(O)cc2)C(=O)N[C@H]2CC[C@@H](O)N(C2=O)[C@@H](C(C)C)C(=O)N(C)[C@@H](Cc2ccccc2)C(=O)N[C@@H]([C@@H](C)CC)C(=O)O[C@@H]1C)C(=O)OC [MICROPEPTIN 88 F]
1.3 | > 100 | CC[C@H](C)[C@@H]1NC(=O)[C@H](Cc2ccccc2)N(C)C(=O)[C@H](C(C)C)N2C(=O)[C@H](CC[C@H]2O)NC(=O)[C@H](Cc2ccc(O)cc2)NC(=O)[C@@H](NC(=O)CC[C@H](NC(=O)[C@H](Cc2ccc(O)cc2)NC(C)=O)C(=O)O)[C@@H](C)OC1=O [MICROPEPTIN 88 Y]
> 100 | 0.02 | CC(C)[C@@H]1NC(=O)[C@H](Cc2ccc(O)cc2)N(C)C(=O)[C@H](Cc2ccccc2)N2C(=O)[C@H](CC[C@H]2O)NC(=O)[C@H](CCCNC(=N)N)NC(=O)[C@@H](NC(=O)[C@@H](O)COS(=O)(=O)O)[C@@H](C)OC1=O [MICROPEPTIN 90]
> 100 | 0.07 | CCCCCCCC(=O)N[C@@H](CCC(=O)O)C(=O)N[C@@H]1C(=O)N[C@@H](CCCCN)C(=O)N[C@H]2CC[C@@H](O)N(C2=O)[C@@H](CC(C)C)C(=O)N(C)[C@@H](Cc2ccc(O)cc2)C(=O)N[C@@H](C(C)C)C(=O)O[C@@H]1C [MICROPEPTIN A]
> 100 | 8.5 | CCCCCC(=O)N[C@@H](CC(=O)O)C(=O)N[C@@H]1C(=O)N[C@@H](CCCCN)C(=O)N[C@H]2CC[C@@H](O)N(C2=O)[C@@H]([C@@H](C)CC)C(=O)N(C)[C@@H](Cc2ccc(O)cc2)C(=O)N[C@@H](C(C)C)C(=O)O[C@@H]1C [MICROPEPTIN SD944]
2.5 | > 100 | CCCCCC(=O)N[C@@H](CC(=O)O)C(=O)N[C@@H]1C(=O)N[C@@H](Cc2ccc(O)cc2)C(=O)N[C@H]2CC[C@@H](O)N(C2=O)[C@@H]([C@@H](C)CC)C(=O)N(C)[C@@H](Cc2ccc(O)cc2)C(=O)N[C@@H](C(C)C)C(=O)O[C@@H]1C [MICROPEPTIN SD979]
> 100 | 4 | CCCCCC(=O)N[C@@H](CC(=O)O)C(=O)N[C@@H]1C(=O)N[C@@H](CCCNC(=N)N)C(=O)N[C@H]2CC[C@@H](O)N(C2=O)[C@@H]([C@@H](C)CC)C(=O)N(C)[C@@H](CC(=O)c2ccccc2N)C(=O)N[C@@H](C(C)C)C(=O)O[C@@H]1C [MICROPEPTIN SD999]
3.2 | > 100 | CCCCCC(=O)N[C@@H](CC(=O)O)C(=O)N[C@@H]1C(=O)N[C@@H](Cc2ccc(O)cc2)C(=O)N[C@H]2CC[C@@H](O)N(C2=O)[C@@H]([C@@H](C)CC)C(=O)N(C)[C@@H](Cc2c[nH]c3ccccc23)C(=O)N[C@@H](C(C)C)C(=O)O[C@@H]1C [MICROPEPTIN SD1002]
> 100 | > 100 | CC[C@H](C)[C@H](NC(=O)[C@H](O)Cc1ccc(O)cc1)C(=O)N[C@@H](CCO)C(=O)N[C@@H]1C(=O)N[C@@H](CCO)C(=O)N[C@H]2CC[C@@H](O)N(C2=O)[C@@H](Cc2ccccc2)C(=O)N(C)[C@@H](Cc2ccc(O)cc2)C(=O)N[C@@H](C(C)C)C(=O)O[C@@H]1C [NOSTOCYCLIN]
1.9 | > 100 | CC[C@H](C)[C@@H]1NC(=O)[C@H](Cc2ccc(OC)cc2)N(C)C(=O)[C@H]([C@@H](C)CC)N2C(=O)[C@H](CC[C@H]2O)NC(=O)[C@H](CCc2ccc(O)cc2)NC(=O)[C@@H](NC(=O)[C@H](CCc2ccc(O)cc2)NC(=O)[C@@H](COS(=O)(=O)O)OC)[C@@H](C)OC1=O [OSCILLAPEPTIN]

Structure (SMILES) | IC50 [1] [µM] | IC50 [2] [µM]
CC(C)CC(NC(=O)[C@H](O)COS(=O)(=O)O)C(=O)N[C@@H]1C(=O)N[C@@H](CCCNC(=N)N)C(=O)N[C@H]2CC[C@@H](O)N(C2=O)[C@@H](CC(C)C)C(=O)N(C)[C@@H](Cc2ccc(O)cc2)C(=O)N[C@@H](C(C)C)C(=O)O[C@@H]1C (single isomer, unassigned) | > 100 | 0.001
CC[C@H](C)[C@@H]1NC(=O)[C@H](Cc2ccc(O)cc2)N(C)C(=O)[C@H](Cc2ccccc2)N2C(=O)[C@H](CC[C@H]2O)NC(=O)[C@H](Cc2ccccc2)NC(=O)[C@@H](NC(=O)[C@@H](O)COP(=O)(O)O)[C@@H](C)OC1=O [MICROPEPTIN T 20] | 2500 | > 100
CC[C@H](C)[C@@H]1NC(=O)[C@H](Cc2ccc(O)cc2)N(C)C(=O)[C@H]([C@H](C)O)N2C(=O)[C@H](CC[C@H]2O)NC(=O)[C@H](CC(C)C)NC(=O)[C@@H](NC(=O)[C@H](CCC(N)=O)NC(=O)[C@H](CCc2ccc(O)cc2)NC(=O)[C@H](O)CO)[C@@H](C)OC1=O [OSCILLAPEPTIN G] | 4 | > 100
